Experiment [1] concerns Trichophyton rubrum. Put plainly: Antifungal activity against Trichophyton rubrum C113 after 48 hrs. In kind it is functional.
The subject of another experiment is Aspergillus niger. Nature of the experiment: Antifungal activity against Aspergillus niger ATCC 9029 after 48 hrs. The note with it: ATCC 9029, 48 h. In kind it is functional.
Experiment [2] concerns Trichophyton benhamiae. Nature of the experiment: Antifungal activity against Trichophyton mentagrophytes C539 after 48 hrs. In kind it is functional, Arthroderma benhamiae.
Another experiment has as its system Saccharomyces cerevisiae. Nature of the experiment: Antifungal activity against Saccharomyces cerevisiae ATCC 9763 after 48 hrs. The note with it: ATCC 9763, 48 h. In kind it is functional.
Experiment [3] relates to Trichophyton benhamiae. Put plainly: Antifungal activity against Trichophyton mentagrophytes C943 after 48 hrs. It counts as functional, Arthroderma benhamiae.
For experiment [4], the system named is Trichophyton benhamiae. Put plainly: Antifungal activity against Trichophyton mentagrophytes C738 after 48 hrs. It counts as functional, Arthroderma benhamiae.
The subject of another experiment is Aspergillus fumigatus. Nature of the experiment: Antifungal activity against Aspergillus fumigatus ATCC 26934 after 48 hrs. In kind it is functional. The note with it: ATCC 26934, 48 h.
The next experiment concerns Nannizzia gypsea. Put plainly: Antifungal activity against Microsporum gypseum C115 after 48 hrs. In kind it is functional.
Experiment [5] deals with Trichophyton benhamiae. Nature of the experiment: Antifungal activity against Trichophyton mentagrophytes ATCC 9972 after 48 hrs. It counts as functional, Arthroderma benhamiae. The note with it: ATCC 9972, 48 h.
Experiment [6] has as its system Trichophyton rubrum. Put plainly: Antifungal activity against Trichophyton rubrum C140 after 48 hrs. In kind it is functional.
Another experiment has as its system Cryptococcus neoformans. Nature of the experiment: Antifungal activity against Cryptococcus neoformans ATCC 32264 after 48 hrs. In kind it is functional. The note with it: ATCC 32264, 48 h.
In another experiment the test system is Aspergillus flavus. Nature of the experiment: Antifungal activity against Aspergillus flavus ATCC 9170 after 48 hrs. It counts as functional. The note with it: ATCC 9170, 48 h.
The subject of experiment [7] is Trichophyton rubrum. Nature of the experiment: Antifungal activity against Trichophyton rubrum C110 after 48 hrs. It counts as functional.
The subject of another experiment is Candida albicans. Nature of the experiment: Antifungal activity against Candida albicans ATCC 10231 after 48 hrs. In kind it is functional. The note with it: ATCC 10231, 48 h.
The test system of experiment [8] is Trichophyton rubrum. Put plainly: Antifungal activity against Trichophyton rubrum C136 after 48 hrs. It counts as functional.
For experiment [9], the system named is Trichophyton benhamiae. Put plainly: Antifungal activity against Trichophyton mentagrophytes C108 after 48 hrs. In kind it is functional, Arthroderma benhamiae.
For experiment [10], the system named is Trichophyton rubrum. Nature of the experiment: Antifungal activity against Trichophyton rubrum C137 after 48 hrs. It counts as functional.
The subject of experiment [11] is Trichophyton rubrum. Put plainly: Antifungal activity against Trichophyton rubrum C135 after 48 hrs. In kind it is functional.
The test system of experiment [12] is Trichophyton benhamiae. Nature of the experiment: Antifungal activity against Trichophyton mentagrophytes C364 after 48 hrs. In kind it is functional, Arthroderma benhamiae.
Experiment [13] relates to Trichophyton rubrum. Put plainly: Antifungal activity against Trichophyton rubrum C139 after 48 hrs. In kind it is functional.

Values after ≈ are worked out from the molar mass of the structure shown. Some results are limits rather than exact numbers.

In the case of `O=C1NC(=S)S/C1=C\c1ccccc1C(F)(F)F`, the MIC (as a rule, the lowest concentration found to suppress growth) was 3.9 µg/mL (≈ 13.5 µM) in the experiment with Trichophyton rubrum [1]; greater than 250 µg/mL against Aspergillus niger; 1.95 µg/mL (≈ 6.74 µM) with Trichophyton benhamiae [2]; 250 µg/mL (≈ 864 µM) in the experiment on Saccharomyces cerevisiae; 0.97 µg/mL (≈ 3.35 µM) in the experiment on Trichophyton benhamiae [3]; 1.95 µg/mL (≈ 6.74 µM) against Trichophyton benhamiae [4]. The MIC with Aspergillus fumigatus was greater than 250 µg/mL; in the experiment on Nannizzia gypsea, 3.9 µg/mL (≈ 13.5 µM); in the experiment on Trichophyton benhamiae [5], 3.9 µg/mL (≈ 13.5 µM); in the experiment on Trichophyton rubrum [6] it was 3.57 µg/mL (≈ 12.3 µM); in the experiment on Cryptococcus neoformans it was 15.6 µg/mL (≈ 53.9 µM); in the experiment with Aspergillus flavus, greater than 250 µg/mL. Further, the MIC with Trichophyton rubrum [7] is 3.9 µg/mL (≈ 13.5 µM); against Candida albicans, 250 µg/mL (≈ 864 µM); with Trichophyton rubrum [8], 3.9 µg/mL (≈ 13.5 µM); against Trichophyton benhamiae [9], 1.95 µg/mL (≈ 6.74 µM); in the experiment with Trichophyton rubrum [10] it was 1.95 µg/mL (≈ 6.74 µM); against Trichophyton rubrum [11], 3.9 µg/mL (≈ 13.5 µM). In addition, the MIC came out at 0.97 µg/mL (≈ 3.35 µM) against Trichophyton benhamiae [12] and 3.9 µg/mL (≈ 13.5 µM) with Trichophyton rubrum [13].

The values above are taken from ChEMBL document CHEMBL1144507, “Synthesis and antifungal activity of (Z)-5-arylidenerhodanines” (2007).
